Data as given in PubChem BioAssay (NCI).
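Compound exposure: 48 hours, 5 concentrations, 96-well plates. The concentration for 50% growth inhibition is given as GI50. At the TGI there is no net growth.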

System: SK-MEL-2 melanoma
Assay: growth of human tumour cells (NCI), 48 h

Molecule `Cc1cc(N[C@@H]2CCC[C@H](Nc3ccnc4cc(Cl)ccc34)C2)nc(N2CCCCCC2)n1` has a GI50 of 2070 nM.

`Cc1cc(N[C@@H]2CCC[C@H](Nc3ccnc4cc(Cl)ccc34)C2)nc(N2CCCCCC2)n1` was tested, and the TGI was 4520 nM.

System: T-47D breast
Assay: growth of human tumour cells (NCI), 48 h

Going from `COc1cc2c(cc1OC)C1C3CCCCC3CCN1CC2` (stereo not given) to `Cc1cc(N[C@@H]2CCC[C@H](Nc3ccnc4cc(Cl)ccc34)C2)nc(N2CCCCCC2)n1`, the TGI falls from greater than 100000 nM to 5380 nM.

`Cc1cc(N[C@@H]2CCC[C@H](Nc3ccnc4cc(Cl)ccc34)C2)nc(N2CCCCCC2)n1` showed a GI50 of 2220 nM.

System: BT-549 breast
Assay: growth of human tumour cells (NCI), 48 h

Going from `COc1cc(O)c2c(c1)C(=O)c1cc3c(c(O)c1C2=O)C(OC1OC(C)C(OC)C(O)C1OC)C(OC)C(C)(O)C3=O` (stereo not given) to `Cc1cc(N[C@@H]2CCC[C@H](Nc3ccnc4cc(Cl)ccc34)C2)nc(N2CCCCCC2)n1`, the TGI falls from 31600 nM to 3750 nM (8.4-fold).

`Cc1cc(N[C@@H]2CCC[C@H](Nc3ccnc4cc(Cl)ccc34)C2)nc(N2CCCCCC2)n1` showed a GI50 of 1750 nM.

System: UO-31 renal
Assay: growth of human tumour cells (NCI), 48 h

Compared with `NC(=O)c1c(NC(=O)c2ccccc2)sc2c1CCC(=O)C2`, `COc1cnc2c(c1)C(=O)c1c-2n(CCCN2CCOCC2)c(=O)c2cc(Cl)ccc12` is 2.5-fold lower in GI50: 865 nM for the first, 349 nM for the second.

With `Cc1cc(N[C@@H]2CCC[C@H](Nc3ccnc4cc(Cl)ccc34)C2)nc(N2CCCCCC2)n1` the GI50 was 1130 nM.

Compared with `NC(=O)c1c(NC(=O)c2ccccc2)sc2c1CCC(=O)C2`, `COc1cnc2c(c1)C(=O)c1c-2n(CCCN2CCOCC2)c(=O)c2cc(Cl)ccc12` is higher in TGI: 2320 nM for the first, greater than 100000 nM for the second.

With `Cc1cc(N[C@@H]2CCC[C@H](Nc3ccnc4cc(Cl)ccc34)C2)nc(N2CCCCCC2)n1` the TGI was 2400 nM.

System: HCT-15 colon
Assay: growth of human tumour cells (NCI), 48 h

Compared with `COc1cc2c(cc1OC)C1C3CCCCC3CCN1CC2` (stereo not given), `Cc1cc(N[C@@H]2CCC[C@H](Nc3ccnc4cc(Cl)ccc34)C2)nc(N2CCCCCC2)n1` is lower in TGI: greater than 100000 nM for the first, 2620 nM for the second.

Going from `NC(=O)c1c(NC(=O)c2ccccc2)sc2c1CCC(=O)C2` to `COc1cc(O)c2c(c1)C(=O)c1cc3c(c(O)c1C2=O)C(OC1OC(C)C(OC)C(O)C1OC)C(OC)C(C)(O)C3=O` (stereo not given), the TGI rises from 1930 nM to 15800 nM (8.2-fold).

Going from `NC(=O)c1c(NC(=O)c2ccccc2)sc2c1CCC(=O)C2` to `Cc1cc(N[C@@H]2CCC[C@H](Nc3ccnc4cc(Cl)ccc34)C2)nc(N2CCCCCC2)n1`, the GI50 rises from 375 nM to 1100 nM (2.9-fold).

System: M14 melanoma
Assay: growth of human tumour cells (NCI), 48 h

Going from `COc1cc(O)c2c(c1)C(=O)c1cc3c(c(O)c1C2=O)C(OC1OC(C)C(OC)C(O)C1OC)C(OC)C(C)(O)C3=O` (stereo not given) to `COc1cnc2c(c1)C(=O)c1c-2n(CCCN2CCOCC2)c(=O)c2cc(Cl)ccc12`, the TGI rises from 9610 nM to greater than 100000 nM.

Work on `Cc1cc(N[C@@H]2CCC[C@H](Nc3ccnc4cc(Cl)ccc34)C2)nc(N2CCCCCC2)n1` yielded a TGI of 3290 nM.

First: COc1cnc2c(c1)C(=O)c1c-2n(CCCN2CCOCC2)c(=O)c2cc(Cl)ccc12
Second: Cc1cc(N[C@@H]2CCC[C@H](Nc3ccnc4cc(Cl)ccc34)C2)nc(N2CCCCCC2)n1
The GI50 of the first is 4.8-fold lower: 323 nM for the first, 1550 nM for the second.

System: SW-620 colon
Assay: growth of human tumour cells (NCI), 48 h

First: COc1cc2c(cc1OC)C1C3CCCCC3CCN1CC2 (stereo not given)
Second: Cc1cc(N[C@@H]2CCC[C@H](Nc3ccnc4cc(Cl)ccc34)C2)nc(N2CCCCCC2)n1
The TGI of the first is higher: greater than 100000 nM for the first, 3280 nM for the second.

First: NC(=O)c1c(NC(=O)c2ccccc2)sc2c1CCC(=O)C2
Second: COc1cnc2c(c1)C(=O)c1c-2n(CCCN2CCOCC2)c(=O)c2cc(Cl)ccc12
The TGI of the first is lower: 2930 nM for the first, greater than 100000 nM for the second.

`COc1cc(O)c2c(c1)C(=O)c1cc3c(c(O)c1C2=O)C(OC1OC(C)C(OC)C(O)C1OC)C(OC)C(C)(O)C3=O` (stereo not given) showed a TGI of 18100 nM.

Going from `NC(=O)c1c(NC(=O)c2ccccc2)sc2c1CCC(=O)C2` to `COc1cnc2c(c1)C(=O)c1c-2n(CCCN2CCOCC2)c(=O)c2cc(Cl)ccc12`, the GI50 falls from 352 nM to 232 nM (1.5-fold).

For `Cc1cc(N[C@@H]2CCC[C@H](Nc3ccnc4cc(Cl)ccc34)C2)nc(N2CCCCCC2)n1`, the GI50 was 1520 nM.

System: UACC-257 melanoma
Assay: growth of human tumour cells (NCI), 48 h

Going from `COc1cc2c(cc1OC)C1C3CCCCC3CCN1CC2` (stereo not given) to `Cc1cc(N[C@@H]2CCC[C@H](Nc3ccnc4cc(Cl)ccc34)C2)nc(N2CCCCCC2)n1`, the TGI falls from greater than 100000 nM to 4190 nM.

First: NC(=O)c1c(NC(=O)c2ccccc2)sc2c1CCC(=O)C2
Second: COc1cc(O)c2c(c1)C(=O)c1cc3c(c(O)c1C2=O)C(OC1OC(C)C(OC)C(O)C1OC)C(OC)C(C)(O)C3=O (stereo not given)
The TGI of the first is 2.6-fold lower: 6130 nM for the first, 16200 nM for the second.

`NC(=O)c1c(NC(=O)c2ccccc2)sc2c1CCC(=O)C2` and `Cc1cc(N[C@@H]2CCC[C@H](Nc3ccnc4cc(Cl)ccc34)C2)nc(N2CCCCCC2)n1` are within 1.5-fold of each other in GI50: 2210 nM for the first, 2350 nM for the second.

System: SN12C renal
Assay: growth of human tumour cells (NCI), 48 h

First: COc1cc2c(cc1OC)C1C3CCCCC3CCN1CC2 (stereo not given)
Second: Cc1cc(N[C@@H]2CCC[C@H](Nc3ccnc4cc(Cl)ccc34)C2)nc(N2CCCCCC2)n1
The TGI of the first is higher: greater than 100000 nM for the first, 3110 nM for the second.

In the case of `NC(=O)c1c(NC(=O)c2ccccc2)sc2c1CCC(=O)C2`, the TGI is reported as 11500 nM.

Compared with `NC(=O)c1c(NC(=O)c2ccccc2)sc2c1CCC(=O)C2`, `Cc1cc(N[C@@H]2CCC[C@H](Nc3ccnc4cc(Cl)ccc34)C2)nc(N2CCCCCC2)n1` is 2.5-fold higher in GI50: 612 nM for the first, 1550 nM for the second.

System: OVCAR-5 ovarian
Assay: growth of human tumour cells (NCI), 48 h

`COc1cc2c(cc1OC)C1C3CCCCC3CCN1CC2` (stereo not given) and `COc1cnc2c(c1)C(=O)c1c-2n(CCCN2CCOCC2)c(=O)c2cc(Cl)ccc12` cannot be ordered by TGI: greater than 100000 nM for the first, greater than 100000 nM for the second.

Going from `NC(=O)c1c(NC(=O)c2ccccc2)sc2c1CCC(=O)C2` to `COc1cc(O)c2c(c1)C(=O)c1cc3c(c(O)c1C2=O)C(OC1OC(C)C(OC)C(O)C1OC)C(OC)C(C)(O)C3=O` (stereo not given), the TGI rises from 11000 nM to 33600 nM (3.1-fold).

Compared with `NC(=O)c1c(NC(=O)c2ccccc2)sc2c1CCC(=O)C2`, `COc1cnc2c(c1)C(=O)c1c-2n(CCCN2CCOCC2)c(=O)c2cc(Cl)ccc12` is higher in GI50: 1770 nM for the first, greater than 100000 nM for the second.
